In patent US7038074B2, “Arginine mimetics as factor Xa inhibitors” (Wilex AG, priority 2000, dated 2006):
“Also recorded” adds a separate entry of the source. Like-named read-outs stand apart in the source and are kept apart here.

What was measured:
factor Xa [1] = assay: Determining the inhibitor constants (Ki, Dixon), factor Xa; type: biochemical, bovine or human
Method: (§1) The measurements were carried out at 25° C. on a microplate reader (MR 5000, Dynatech, Denkendorf, Germany). The test medium consisted of 200 μl of Tris buffer (0.05 M; 0.154 M NaCl, 5% ethanol, pH 8.0), 25 μl of aqueous substrate solution and 50 μl of enzyme solution. Two concentrations of the substrate and five concentrations of the inhibitor were used. Three minutes after adding the enzyme, 25 μl of acetic acid (50%) were added in order to quench the reaction and the optical density was measured at 405 nm. The Ki values were calculated in accordance with Dixon (M. Dixon (1953), Biochem. J. 55, 170–171) using a linear regression. The Ki values given in FIGS. 2 and 3 are means of at least three determinations.
(§2) The following enzymes and the corresponding substrates were used at the given final concentrations: bovine thrombin, prepared in accordance with Walsmann (P. Walsmann (1968), Pharmazie 23, 401–402) (2 262 U/mg, final concentration 0.45 U/ml), substrate MeSO2-D-hexahydrotyrosyl-Gly-Arg-pNA (final concentration 0.18 and 0.09 mM); bovine factor Xa (5 U/vial, 0.11 U/ml; Diagnostic Reagents Ltd., Thame, UK), substrate MeSO2-D-Nle-Gly-Arg-pNA (0.36 and 0.18 mM); human factor Xa (0.18 μg/ml; Kordia Lab. Supplies, Leiden, Netherlands), substrate as for bovine factor Xa human plasmin (0.67 CTA U/mg, 0.06 CTA U/ml; Behringwerke AG, Marburg, Germany), substrate Tos-Gly-Pro-Lys-pNA (0.18 and 0.09 mM); human uPA (500 000 U/vial, final concentration 150 U/ml; Ribosepharm GmbH Haan, Germany), substrate Bz-βAla-Gly-Arg-pNA (0.18 and 0.09 mM); bovine pancreas trypsin (42 U/mg, 0.0038 U/ml; Serva, Heidelberg, Germany), substrate MeSO2-D-hexahydrotyrosyl-Gly-Arg-pNA (0.18 and 0.06 mM).

human uPA = molecular target: T1, human uPA (Homo sapiens, UniProt P00749); assay: Determining the inhibitor constants, uPA; type: biochemical
T1 construct: purchased Ribosepharm GmbH Haan, Germany
Method: as §1, §2

bovine thrombin = molecular target: T2, bovine thrombin (Bos taurus, UniProt P00735); assay: Determining the inhibitor constants, thrombin; type: biochemical
T2 construct: converts the zymogen prothrombin into its active form thrombin; made in house
Method: as §1, with “determinations. […]” for “determinations.”

bovine pancreas trypsin = molecular target: T3, bovine pancreas trypsin (Bos taurus, UniProt P00760); assay: Determining the inhibitor constants, trypsin; type: biochemical
T3 construct: purchased Serva, Heidelberg, Germany; host or cells: bovine pancreas
T3 sequence (P00760 24-246): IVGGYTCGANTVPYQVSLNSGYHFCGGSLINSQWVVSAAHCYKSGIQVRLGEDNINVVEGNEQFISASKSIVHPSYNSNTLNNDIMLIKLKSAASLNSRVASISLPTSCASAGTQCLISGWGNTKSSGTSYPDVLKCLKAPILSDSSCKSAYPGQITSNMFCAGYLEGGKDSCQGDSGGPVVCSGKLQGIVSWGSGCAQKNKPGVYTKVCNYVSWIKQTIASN
Method: as §1, §2

[2] = Chemical and enzymic stability, stability towards acids; type: physicochemical; details: for example stomach acids
factor Xa [3] = molecular target: T4, factor Xa (UniProt P00743); assay: Determining the inhibitor constants (Ki, Dixon), factor Xa; type: biochemical, bovine or human; details: for Ki: 25° C., pH 8.0, species of factor Xa not given
T4 construct: Ki factor Xa; other: 25° C., pH 8.0; factor Xa activity of the D-enantiomer relative to the L-enantiomer 27; other: compound 28 versus compound 27; other: relative to compound 31
Method: as §1, §2

factor Xa [4] = details: prior art, Gabriel et al. 1998; cited from earlier work

Row | SMILES | inhibitory effect on factor Xa (in words) (factor Xa [1]) | inhibition of / affinity for trypsin (in words) (bovine pancreas trypsin) | inhibition of uPA (in words) (human uPA) | also measured
1 | Cl.N=C(N)c1cccc(CC(NC(=O)OC23CC4CC(CC(C4)C2)C3)C(=O)N2CCCCC2)c1 [Compound 17, N-1-adamantyloxycarbonyl-D,L-3-amidinophenylalanine piperidide hydrochloride] | does not show any important differences | – | – | –
2 | COC(=O)C(Cc1cccc(C(=N)N)c1)NC(=O)OC12CC3CC(CC(C3)C1)C2.Cl (racemic) [Compound 11, N-1-adamantyloxycarbonyl-D,L-3-amidinophenylalanine methyl ester hydrochloride] | – | – | – | selectivity for factor Xa vis-à-vis uPA, thrombin and trypsin (factor Xa [1]): remarkable selectivity; inhibitory effect on factor Xa (in words) (factor Xa [1]; hydrochloride): significantly increased inhibitory effect; also recorded: submicromolar inhibition
3 | COC(=O)C(Cc1cccc(C(=N)N)c1)NC(=O)NC12CC3CC(CC(C3)C1)C2.Cl (racemic) [Compound 12, N-1-adamantylaminocarbonyl-D,L-3-amidinophenylalanine methyl ester hydrochloride] | – | – | dramatic effects on the inhibition of uPA | stability (acids; chemical and enzymic) [2]: desirable stability towards acids
4 | Cl.N=C(N)c1cccc(CC(NC(=O)OC23CC4CC(CC(C4)C2)C3)C(=O)O)c1 (racemic) [Compound 15, N-1-adamantyloxylcarbonyl-D,L-3-amidinophenylalanine hydrochloride] | does not show any important differences | – | – | –
5 | Cl.N=C(N)c1cccc(C[C@@H](NC(=O)OC23CC4CC(CC(C4)C2)C3)C(=O)NCCc2ccccc2)c1 [Compound 31, N-1-adamantyloxycarbonyl-D-3-amidinophenylalanine-(2-phenyl)-1-ethylamine hydrochloride] | – | – | – | Ki (factor Xa [3]): 74 nM; inhibitory effect on factor Xa (in words) (factor Xa [1]; hydrochloride): strongest inhibitor; inhibitory effect on factor Xa (in words) (factor Xa [1]; listed as N-1-adamantyloxycarbonyl-D-3-amidinophenylalanine-(2-phenyl)-1-ethylamide, hydrochloride): very powerful inhibitory effect
6 | CCOC(=O)C(Cc1ccc(C(=N)N)cc1)NC(=O)CNS(=O)(=O)c1ccc(C(=N)N)cc1 (racemic) [Compound 2, N^α-4-amidinobenzenesulfonylglycyl-D,L-4-amidinophenylalanine ethyl ester] | – | – | – | Ki (factor Xa [4]): 500 nM
7 | N=C(N)c1cccc(C[C@@H](NC(=O)NC23CC4CC(CC(C4)C2)C3)C(=O)NCCc2ccccc2)c1 [Compound 32, N-(1-adamantylaminocarbonyl)-D-3-amidinophenylalanine-(2-phenyl)-1-ethylamide] | even more powerful inhibitory effect | – | – | factor by which FXa is inhibited better than by compound 31 (factor Xa [3]; relative to compound 31): 3

Now from value to molecule, other results behind:

Row | inhibitory effect on factor Xa (in words) (factor Xa [1]) | inhibition of / affinity for trypsin (in words) (bovine pancreas trypsin) | SMILES | inhibition of uPA (in words) (human uPA) | also measured
8 | dramatic loss in inhibitory activity | dramatic loss in inhibitory activity | COC(=O)C(Cc1ccc(NC(=N)N)cc1)NC(=O)OC12CC3CC(CC(C3)C1)C2.Cl (racemic) [Compound 26, N-1-adamantyloxycarbonyl-D,L-4-guanidinophenylalanine methyl ester hydrochloride] | dramatic loss in inhibitory activity | inhibition of thrombin (in words) (bovine thrombin): dramatic loss in inhibitory activity
9 | – | almost identical affinity | COC(=O)[C@H](Cc1cccc(C(=N)N)c1)NC(=O)OC12CC3CC(CC(C3)C1)C2.Cl [Compound 27, N-1-adamantyloxycarbonyl-L-3-amidinophenylalanine methyl ester hydrochloride] | only capable of recognizing the L-enantiomer | –
10 | – | almost identical affinity | COC(=O)[C@@H](Cc1cccc(C(=N)N)c1)NC(=O)OC12CC3CC(CC(C3)C1)C2.Cl [Compound 28, N-1-adamantyloxycarbonyl-D-3-amidinophenylalanine methyl ester hydrochloride] | only capable of recognizing the L-enantiomer | Ki (factor Xa [3]): 390 nM; factor Xa activity of the D-enantiomer relative to the L-enantiomer 27 (factor Xa [3]; compound 28 versus compound 27): about 10 times
